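All cell lines were grown in 96-well plates and treated with compound for 48 hours. GI50 is the concentration that inhibits growth by half.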 The source made the active and inactive calls. No stated cut-off is given here; in the data, active = GI50 up to about 1.1 µM and inactive = higher.
Columns and labels:
Assay in all cases: DTP human tumour cell line panel, 48 h
PC-3 = test system: PC-3
HCT-15 = test system: HCT-15
SR = test system: SR
MDA-MB-231 = test system: MDA-MB-231
OVCAR-5 = test system: OVCAR-5
HT-29 = test system: HT-29
HOP-62 = test system: HOP-62
SK-OV-3 = test system: SK-OV-3
Hs-578T = test system: Hs-578T
HOP-92 = test system: HOP-92
MCF7 = test system: MCF7
NCI-H460 = test system: NCI-H460
HCT-116 = test system: HCT-116
RXF 393 = test system: RXF 393
NCI/ADR-RES = test system: NCI/ADR-RES
MOLT-4 = test system: MOLT-4
NCI-H522 = test system: NCI-H522
KM12 = test system: KM12
SF-539 = test system: SF-539
CAKI-1 = test system: CAKI-1

SMILES: O=C1C(=C(C(F)(F)Cl)C(F)(F)Cl)C2CCC1C2 (centres undefined)
- GI50 (PC-3): 2.07 µM (inactive)
- GI50 (HCT-15): 1.98 µM
- GI50 (SR): 0.0655 µM (active)
- GI50 (MDA-MB-231): 1.56 µM (inactive)
- GI50 (OVCAR-5): 2.96 µM (inactive)
- GI50 (HT-29): 2.19 µM (inactive)
- GI50 (HOP-62): > 9.16 µM (inactive)
- GI50 (SK-OV-3): > 10 µM (inactive)
- GI50 (Hs-578T): 4.51 µM (inactive)
- GI50 (HOP-92): 2.58 µM (inactive)
- GI50 (MCF7): 2.49 µM (inactive)
- GI50 (NCI-H460): 3.15 µM (inactive)
- GI50 (HCT-116): 1.9 µM (inactive)
- GI50 (RXF 393): 1.63 µM (inactive)
- GI50 (NCI/ADR-RES): 2.15 µM (inactive)
- GI50 (MOLT-4): 0.0131 µM (active)
- GI50 (NCI-H522): 0.225 µM (active)
- GI50 (KM12): 3.01 µM (inactive)
- GI50 (SF-539): 3.29 µM (inactive)

SMILES: COCCNC1CCC2(SCCS2)c2[nH]c3ccccc3c21 (centres undefined)
- GI50 (PC-3): 28.6 µM (inactive)
- GI50 (CAKI-1): 39.1 µM (inactive)
- GI50 (HCT-15): 69.8 µM
- GI50 (SR): 23.1 µM (inactive)
- GI50 (MDA-MB-231): 20.3 µM (inactive)
- GI50 (OVCAR-5): > 100 µM (inactive)
- GI50 (HT-29): > 100 µM (inactive)
- GI50 (HOP-62): 86.7 µM (inactive)
- GI50 (Hs-578T): 57.9 µM (inactive)
- GI50 (HOP-92): 21.8 µM (inactive)
- GI50 (MCF7): 16.8 µM (inactive)
- GI50 (NCI-H460): 67.8 µM (inactive)
- GI50 (HCT-116): 50.1 µM (inactive)
- GI50 (RXF 393): 14 µM (inactive)
- GI50 (NCI/ADR-RES): 37.5 µM (inactive)
- GI50 (MOLT-4): 29.2 µM (inactive)
- GI50 (NCI-H522): 30.8 µM (inactive)
- GI50 (KM12): 17.8 µM (inactive)
- GI50 (SF-539): 23.6 µM (inactive)

SMILES: O=C1c2ccccc2C2C1C(c1ccccc1)C1(Cc3ccccc3C1=O)C2c1ccccc1 (centres undefined)
- GI50 (PC-3): 12.5 µM (inactive)
- GI50 (HCT-15): > 100 µM
- GI50 (SR): 7.57 µM (inactive)
- GI50 (MDA-MB-231): 4.72 µM (inactive)
- GI50 (OVCAR-5): > 100 µM (inactive)
- GI50 (HT-29): 14.8 µM (inactive)
- GI50 (HOP-62): > 100 µM (inactive)
- GI50 (SK-OV-3): > 100 µM (inactive)
- GI50 (Hs-578T): > 100 µM (inactive)
- GI50 (HOP-92): > 100 µM (inactive)
- GI50 (MCF7): > 31.7 µM (inactive)
- GI50 (NCI-H460): > 67 µM (inactive)
- GI50 (HCT-116): 2.2 µM (inactive)
- GI50 (RXF 393): > 100 µM (inactive)
- GI50 (NCI/ADR-RES): > 100 µM (inactive)
- GI50 (MOLT-4): 3.58 µM (inactive)
- GI50 (NCI-H522): 20.5 µM (inactive)
- GI50 (KM12): > 100 µM (inactive)
- GI50 (SF-539): > 100 µM (inactive)

SMILES: COc1ccc(C(=O)NCCC2CN(S(=O)(=O)C(F)(F)F)c3ccccc32)c(OC)c1 (centres undefined)
- GI50 (PC-3): 36 µM (inactive)
- GI50 (CAKI-1): > 100 µM (inactive)
- GI50 (HCT-15): 57.4 µM
- GI50 (SR): > 100 µM (inactive)
- GI50 (MDA-MB-231): > 100 µM (inactive)
- GI50 (OVCAR-5): > 100 µM (inactive)
- GI50 (HT-29): 22.7 µM (inactive)
- GI50 (HOP-62): 88.5 µM (inactive)
- GI50 (SK-OV-3): > 100 µM (inactive)
- GI50 (Hs-578T): 33.1 µM (inactive)
- GI50 (HOP-92): 61.4 µM (inactive)
- GI50 (MCF7): 52.1 µM (inactive)
- GI50 (NCI-H460): 33.6 µM (inactive)
- GI50 (HCT-116): 35.8 µM (inactive)
- GI50 (RXF 393): > 100 µM (inactive)
- GI50 (NCI/ADR-RES): 23.1 µM (inactive)
- GI50 (MOLT-4): 29.1 µM (inactive)
- GI50 (NCI-H522): 19.3 µM (inactive)
- GI50 (KM12): 21.3 µM (inactive)

SMILES: C=CC1(c2ccc(Br)cc2)OCCCO1
- GI50 (PC-3): > 100 µM (inactive)
- GI50 (HCT-15): > 100 µM
- GI50 (SR): > 100 µM (inactive)
- GI50 (MDA-MB-231): > 100 µM (inactive)
- GI50 (OVCAR-5): > 100 µM (inactive)
- GI50 (HT-29): > 100 µM (inactive)
- GI50 (HOP-62): > 100 µM (inactive)
- GI50 (SK-OV-3): > 100 µM (inactive)
- GI50 (Hs-578T): > 100 µM (inactive)
- GI50 (HOP-92): > 100 µM (inactive)
- GI50 (MCF7): > 100 µM (inactive)
- GI50 (NCI-H460): > 100 µM (inactive)
- GI50 (HCT-116): > 100 µM (inactive)
- GI50 (RXF 393): > 100 µM (inactive)
- GI50 (NCI/ADR-RES): > 100 µM (inactive)
- GI50 (MOLT-4): > 100 µM (inactive)
- GI50 (NCI-H522): > 100 µM (inactive)
- GI50 (KM12): > 100 µM (inactive)
- GI50 (SF-539): > 100 µM (inactive)

SMILES: Cc1c2ccccc2c(CSC(=N)N)c2ccccc12
- GI50 (PC-3): 0.23 µM (active)
- GI50 (HCT-15): 0.269 µM
- GI50 (SR): 0.0194 µM (active)
- GI50 (MDA-MB-231): 0.276 µM (active)
- GI50 (OVCAR-5): 0.326 µM (active)
- GI50 (HT-29): 0.163 µM (active)
- GI50 (HOP-62): 0.241 µM (active)
- GI50 (SK-OV-3): 0.344 µM (active)
- GI50 (Hs-578T): 0.172 µM (active)
- GI50 (HOP-92): 0.29 µM (active)
- GI50 (MCF7): 0.104 µM (active)
- GI50 (NCI-H460): 0.074 µM (active)
- GI50 (HCT-116): 0.189 µM (active)
- GI50 (RXF 393): 0.0715 µM (active)
- GI50 (NCI/ADR-RES): 0.234 µM (active)
- GI50 (MOLT-4): 0.0284 µM (active)
- GI50 (NCI-H522): 0.0348 µM (active)
- GI50 (KM12): 0.218 µM (active)
- GI50 (SF-539): 0.118 µM (active)

Reference: ChEMBL document CHEMBL1201862, “PubChem BioAssay data set” (2004)
